Key:
THP-1 cells [1] = assay: XTT cytotoxicity assay, THP-1; type: cell-based, human; conditions: for IC50: Homo sapiens, THP-1, XTT, 48 h incubation, none in the picture; for sensitivity of cells to the compound: THP-1, XTT
Protocol: (§1) The cytotoxic activity test with XTT (sodium 3′-[1-(phenylaminocarbonyl)- 3,4-tetrazolium]-bis (4-methoxy-6-nitro) benzene sulfonic acid hydrate) is a colorimetric method for determining the parameters associated with cell viability. The cytotoxicity in HL-60, THP-1, MOLT-4, and HMEC-1 cells was measured by the XTT assay. XTT is reduced to formazan by the mitochondrial respiratory chain oxidoreductase, which is active only in living cells. The formed crystals of formazan are dissolved directly in the medium. The amount of product is proportional to the number of live cells.
(§2) The IC50 parameter was determined by dividing the mean absorbance values of the drug-treated samples by those of control cells and defined as the drug concentration causing a 50% reduction of cell viability relative to the control. It was calculated using the “Ed50v10(1)” computer application. Cells were plated in 96-well plates at a density of 15 × 10^3 cells in 100 μL culture medium. Drugs were then added at a concentration range of 10 nM–10,000 nM to obtain a final volume of the mixture of 150 μL. Some cells were preincubated with an ATR kinase inhibitor (VE-821) for 1 h at 37 °C before adding the tested compounds. In this case drugs were added at a concentration range of 10 nM–300 nM. For the XTT assay, after 48 h of incubation, the plates were centrifuged at 1,500 rpm for 10 min at 4 °C, the culture medium was removed, and the cells were suspended in 100 mm^3 of HBSS (Hank’s Buffered Salt Solution) containing 140 mM NaCl, 5 mM KCl, 0.8 mM MgCl2, 1.8 mM CaCl2, 1 mM Na2HPO4, 10 mM HEPES (N- (2-hydroxyethyl) -piperazine-N′- (2-ethanesulfonic acid), and 1% glucose at pH 7.4. Then, 50 μL of XTT solution (in PBS) was added to a final concentration of […]. In addition, PMS (phenazine methosulphate) - methyl dibenzo-N-methylpyrazine sulphate (0.383 mg/cm^3) was used, which was combined with XTT solution at a ratio of 1:50. After 4 h of incubation with XTT, absorbance was measured at a wavelength λ = 450 nm and reference wavelength λ = 690 nm with a microplate reader (BioTek, Winooski, VT, USA).

MOLT-4 cells = assay: XTT cytotoxicity assay, MOLT-4; type: cell-based, human; conditions: for IC50: Homo sapiens, MOLT-4, XTT, 48 h incubation, none in the picture
Protocol: as §1, §2

HL-60 cells [2] = assay: XTT cytotoxicity assay, HL-60; type: cell-based; conditions: Homo sapiens, 48 h incubation, none in the picture
Protocol: as §1, §2

HMEC-1 cells = assay: XTT cytotoxicity assay, HMEC-1 (normal dermal endothelium); type: cell-based; conditions: Homo sapiens, 48 h incubation, none in the picture
Protocol: as §1, §2

γH2AX in MOLT-4 cells = assay: H2AX (phospho S139) In-Cell ELISA, MOLT-4; type: cell-based, human; conditions: MOLT-4, 48 h, versus CLA
Protocol: The level H2AX protein phosphorylated Ser139 was measured in tested leukemia cells by using of In-Cell ELISA, ICE assay kit. The cells were seeded on 96-well plates (100 × 10^3/well) and 48 h later, incubated with the appropriate compounds. In some experimental variants, cells were preincubated for 1 h with VE-821 (10 µM). The cells were fixed by adding a final concentration of 4% paraformaldehyde solution (10 min, room temperature). After 2 h of Block Solution incubation, cells were treated with a highly specific antibody. A rabbit monoclonal antibody specific to H2AX (phospho S139) was used (at 1:100, 2 h incubation). Next Secondary Antibody Solution (at 1:1000) were added to the cells. The measurements were obtained on a fluorescence plate reader at an excitation wavelength of 680 nm and emission at 694 nm. The cells were PBS washed and 100 µL of Janus Green Stain was added to each well of the plate (5 min., room temperature). The data were collected at excitation wavelength of 750 nm and emission at 800 nm channel (Fluoroskan Cary Eclipse). Antibody signal intensity was normalized to the total amount using Janus Green cell-stain.

[3] = tested on: leukemic cells (HL-60, MOLT-4, THP-1); assay: XTT cytotoxicity assay, leukemic cells overall; type: cell-based, human; conditions: XTT, leukemic cell lines
Protocol: as §1, §2

HL-60 cells [4] = assay: Comet assay with proteinase K post-treatment (DNA-protein cross-links), HL-60; type: cell-based, human; conditions: for DNA damage after proteinase K: HL-60, 24 h
Protocol: (§3) Single cell gel electrophoresis (comet assay) was used to detect alkali labile sites, single and double DNA strand breaks, and cross-links induced by genotoxic agents. After electrophoresis and gel staining with 4,6-diamidino-2-phenylindole (DAPI), the released DNA was visible under a fluorescence microscope as a characteristic comet tail. The cells were plated on 24-well plates (20,000 cells/mL) and treated with CLA, CLA-FMOR, CLA-FPIP, or CLA-FPIR at the indicated concentrations for 2, 24, and 48 h at 37 °C. Some cells were preincubated with an ATR kinase inhibitor (VE-821) for 1 h at 37 °C before adding the tested compounds. Next, cells were collected into Eppendorf tubes and rinsed with PBS. Then, cells were suspended in 0.75% low melting point (LMP) agarose dissolved in PBS (pH 7.4) and placed on microscope slides precoated with 0.5% normal melting point (NMP) agarose. Subsequently, the slides were treated with a cooled lysis buffer (2.5 M NaCl, 100 mM EDTA, 10 mM Tris, 1% Triton X-100, pH 9.0) for 1–24 h at 4 °C. Then, slides were placed in developing buffer (300 mM NaOH, 1 mM EDTA) for 20 min. Electrophoresis was performed in […] (30 mM NaOH, 1 mM EDTA) at 29 V and 30 mA for 20 min. The samples were stained with DAPI ([…]). The slides were stored in a wet chamber at 4 °C and analyzed under a fluorescence microscope. Fifty randomly selected cells from each slide were measured using image analysis (Nikon, Japan) attached to a COHU 4910 video camera, which was equipped with a UV-1 filter block consisting of an excitation filter (359 nm) and a barrier filter (461 nm) connected to the image analysis system Lucia-Comet v. 4.51 (Czech Republic)[41]. In the samples preincubated with VE-821, the level of DNA damage associated with the ATR kinase was determined.
Because cross-links can be undetectable in the alkaline comet assay, a variant of this method including post-treatment with proteinase K (Cat no: P2308) was used. Proteinase K digests peptide bonds, releasing the cross-linked DNA […] the DNA-protein complexes without altering the structure of the DNA-DNA complexes to distinguish them. After lysis, the slides were washed three times in TE buffer (10 mM Tris, pH 10, 1 mM EDTA). The cells were treated with aliquots of proteinase K (60 µL per slide; 1 mg/mL TE buffer) for 1 h at 37 °C in a wet chamber. Further steps of the comet assay were performed as described above.

THP-1 cells [5] = assay: Comet assay with proteinase K post-treatment (DNA-protein cross-links), THP-1; type: cell-based, human
Protocol: as §3
Because cross-links can be undetectable in the alkaline comet assay, a variant of this method including post-treatment with proteinase K (Cat no: P2308) was used. […]

Row | Structure (SMILES) | IC50 (THP-1 cells [1]) [nM] | sensitivity of cells to the compound (THP-1 cells [1]) | IC50 (MOLT-4 cells) [nM] | cytotoxic potency compared with CLA (MOLT-4 cells; MOLT-4, XTT) | IC50 (HL-60 cells [2]) [nM] | IC50 (HMEC-1 cells) [nM] | effectiveness in inducing dsDNA (γH2AX) relative to CLA (γH2AX in MOLT-4 cells) | cytotoxicity (in words) [3] | DNA damage after proteinase K (HL-60 cells [4]) | DNA-protein cross-links after proteinase K (HL-60 cells [4]; HL-60, starting at 2 h of incubation) | DNA damage in the tail after proteinase K (THP-1 cells [5]; THP-1, 2–48 h) | DNA damage in the tail after proteinase K (THP-1 cells [5]; THP-1, 24 h)
1 | OC[C@H]1O[C@@H](n2cnc3c(N=CN4CCOCC4)nc(Cl)nc32)C[C@@H]1O [CLA-FMOR, [6-deamino-6-(N′, N′-3′-oxa-1′, 5′-pentamethyleneformamidine)] cladribine] | 41 | highest sensitivity | 73 | more potent than CLA | 122 | 287 | about 2 fold | high cytotoxic activity | increased the DNA damage | increased the level of cross-links | increased | –
2 | OC[C@H]1O[C@@H](n2cnc3c(N=CN4CCCC4)nc(Cl)nc32)C[C@@H]1O [CLA-FPIR, [6-deamino-6-(N′, N′-l′, 4′-tetramethyleneformamidino)] cladribine] | 36 | highest sensitivity | 127 | – | 135 | 231 | about 2 fold | high cytotoxic activity | increased the DNA damage | – | – | increased
